Series [1] relates to Mus musculus. Briefly: Antiatherosclerotic activity against high fat/high cholesterol fed LDLR-deficient mouse assessed as ldlr gene regulation at 0.6 mg/kg administered with diet for 7 days by Experion chip analysis. Type of series: functional, organism-based. The arrangement: dose 0.6 mg/kg.
For series [2], the target named is T1, Glucocorticoid receptor (Homo sapiens) (UniProt P04150).
T1 sequence (whole entry): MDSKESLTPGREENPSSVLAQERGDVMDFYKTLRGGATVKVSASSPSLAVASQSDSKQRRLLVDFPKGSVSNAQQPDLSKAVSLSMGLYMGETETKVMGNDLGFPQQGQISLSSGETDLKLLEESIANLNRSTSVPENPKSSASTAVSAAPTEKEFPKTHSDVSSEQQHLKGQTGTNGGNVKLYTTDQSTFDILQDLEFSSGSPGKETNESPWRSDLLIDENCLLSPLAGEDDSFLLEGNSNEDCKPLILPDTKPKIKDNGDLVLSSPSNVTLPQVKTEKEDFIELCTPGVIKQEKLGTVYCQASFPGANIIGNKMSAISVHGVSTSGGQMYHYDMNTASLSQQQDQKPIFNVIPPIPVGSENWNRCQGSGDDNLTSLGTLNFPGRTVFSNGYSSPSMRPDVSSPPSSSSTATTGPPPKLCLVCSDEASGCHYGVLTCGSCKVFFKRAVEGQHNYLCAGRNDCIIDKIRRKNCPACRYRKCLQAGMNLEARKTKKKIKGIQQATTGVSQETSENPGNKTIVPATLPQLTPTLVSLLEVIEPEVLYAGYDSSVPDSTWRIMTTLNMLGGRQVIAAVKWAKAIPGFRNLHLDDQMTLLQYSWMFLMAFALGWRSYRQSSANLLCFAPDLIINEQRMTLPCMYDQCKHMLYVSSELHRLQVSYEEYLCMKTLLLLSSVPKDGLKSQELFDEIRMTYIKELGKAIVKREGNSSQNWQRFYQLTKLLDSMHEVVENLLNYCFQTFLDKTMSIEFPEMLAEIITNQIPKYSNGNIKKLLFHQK
The series is described as follows: Binding affinity to glucocorticoid receptor.

The test system of another series is HepG2. Briefly: Agonist activity at LXR in human HepG2 cells assessed as lipid accumulation relative to T0901317.
Series [3] is described as follows: Cmax in C57 mouse at 10 mg/kg, po. Type of series: ADME, organism-based. Further details: dose 10 mg/kg, route oral. The note with it: in vivo.
For series [4], the system named is Mus musculus. Briefly: Antiatherosclerotic activity against high fat/high cholesterol fed LDLR-deficient mouse assessed as reduction in aortic arch lesion burden at 0.6 mg/kg/day administered with diet relative to control. Format: functional, Pharyngeal arch artery. Further details: scale not given: the % may be the effect or the level left.
A short description of series [5]: AUC (0 to infinity) in C57 mouse at 10 mg/kg, po. Format: ADME, organism-based. The arrangement: time infinity, dose 10 mg/kg, route oral. To be noted: plasma.
The target in series [6] is T2, Oxysterols receptor LXR-beta (Homo sapiens, UniProt P55055).
T2 sequence (P55055 whole entry): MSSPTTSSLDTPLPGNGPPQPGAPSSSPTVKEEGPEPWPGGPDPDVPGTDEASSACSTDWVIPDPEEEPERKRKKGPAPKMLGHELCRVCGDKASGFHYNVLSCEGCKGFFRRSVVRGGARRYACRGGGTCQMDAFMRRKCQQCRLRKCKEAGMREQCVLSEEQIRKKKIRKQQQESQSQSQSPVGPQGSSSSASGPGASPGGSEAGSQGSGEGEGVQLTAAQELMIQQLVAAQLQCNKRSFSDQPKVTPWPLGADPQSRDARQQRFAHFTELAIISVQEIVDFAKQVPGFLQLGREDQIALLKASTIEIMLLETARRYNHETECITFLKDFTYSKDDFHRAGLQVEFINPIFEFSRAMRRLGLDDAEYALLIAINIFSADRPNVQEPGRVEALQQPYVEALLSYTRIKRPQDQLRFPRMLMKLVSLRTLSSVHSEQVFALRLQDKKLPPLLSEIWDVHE
Series [7] has as its target T3, Bile acid receptor (Homo sapiens) (UniProt Q96RI1).
T3 sequence (whole entry): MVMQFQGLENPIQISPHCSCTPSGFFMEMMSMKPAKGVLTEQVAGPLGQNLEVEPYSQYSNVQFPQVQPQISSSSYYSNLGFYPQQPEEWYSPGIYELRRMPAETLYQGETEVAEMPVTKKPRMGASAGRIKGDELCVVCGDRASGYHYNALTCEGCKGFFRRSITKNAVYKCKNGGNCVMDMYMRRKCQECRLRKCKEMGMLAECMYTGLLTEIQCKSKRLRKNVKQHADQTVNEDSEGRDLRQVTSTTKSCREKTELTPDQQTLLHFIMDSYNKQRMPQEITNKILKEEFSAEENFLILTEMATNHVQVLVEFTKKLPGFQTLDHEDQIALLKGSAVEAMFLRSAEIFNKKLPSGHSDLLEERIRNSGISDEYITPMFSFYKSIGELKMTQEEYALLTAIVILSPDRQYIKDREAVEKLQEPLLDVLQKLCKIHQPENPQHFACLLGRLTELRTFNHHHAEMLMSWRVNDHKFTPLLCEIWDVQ
The series is described as follows: Binding affinity to FXR.

For series [8], the target named is T2, Oxysterols receptor LXR-beta. This is another data set of the same source.
The target in series [9] is T4, Peroxisome proliferator-activated receptor delta (Homo sapiens) (UniProt Q03181).
T4 sequence (whole entry): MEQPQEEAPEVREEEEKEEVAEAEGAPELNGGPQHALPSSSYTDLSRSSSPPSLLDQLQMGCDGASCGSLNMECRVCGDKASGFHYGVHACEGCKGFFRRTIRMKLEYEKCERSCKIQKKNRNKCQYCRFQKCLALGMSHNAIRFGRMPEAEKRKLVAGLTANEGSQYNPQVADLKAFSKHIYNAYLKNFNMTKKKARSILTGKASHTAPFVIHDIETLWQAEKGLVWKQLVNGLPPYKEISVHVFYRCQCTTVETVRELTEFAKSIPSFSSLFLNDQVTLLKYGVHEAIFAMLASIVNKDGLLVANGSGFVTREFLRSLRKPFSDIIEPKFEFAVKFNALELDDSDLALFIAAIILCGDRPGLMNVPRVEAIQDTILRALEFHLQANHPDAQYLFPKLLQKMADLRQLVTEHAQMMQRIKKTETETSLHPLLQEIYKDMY
The series is described as follows: Binding affinity to PPARdelta.

The target of series [10] is T2, Oxysterols receptor LXR-beta. The series is described as follows: Displacement of [3H]T0901317 from human LXRbeta ligand binding domain. A general note: Loss of bound radioactivity is the signal in a displacement assay; it reports binding, not function.
The subject of series [11] is Mus musculus. The series is described as follows: Antiatherosclerotic activity against high fat/high cholesterol fed LDLR-deficient mouse assessed as reduction in aortic arch lesion burden at 3 mg/kg/day administered with diet relative to control. The arrangement: scale not given: the % may be the effect or the level left. Format: functional, Pharyngeal arch artery.

The target of series [12] is T5, Estrogen receptor (Homo sapiens) (UniProt P03372).
T5 sequence (whole entry): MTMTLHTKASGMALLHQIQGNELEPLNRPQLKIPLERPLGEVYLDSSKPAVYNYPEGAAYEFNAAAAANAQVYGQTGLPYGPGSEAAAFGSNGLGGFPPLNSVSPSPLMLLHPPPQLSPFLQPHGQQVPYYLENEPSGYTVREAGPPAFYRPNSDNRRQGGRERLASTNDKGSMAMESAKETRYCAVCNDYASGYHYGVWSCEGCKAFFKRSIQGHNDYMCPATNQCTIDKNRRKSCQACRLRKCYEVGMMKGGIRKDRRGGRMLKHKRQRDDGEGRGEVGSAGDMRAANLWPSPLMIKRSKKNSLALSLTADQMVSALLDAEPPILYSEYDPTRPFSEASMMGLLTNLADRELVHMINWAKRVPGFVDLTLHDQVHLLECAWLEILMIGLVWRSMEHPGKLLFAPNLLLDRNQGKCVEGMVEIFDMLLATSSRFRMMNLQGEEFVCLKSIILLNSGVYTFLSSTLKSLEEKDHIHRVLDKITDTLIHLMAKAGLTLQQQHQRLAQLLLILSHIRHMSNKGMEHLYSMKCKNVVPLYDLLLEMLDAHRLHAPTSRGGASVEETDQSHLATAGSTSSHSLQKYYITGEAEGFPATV
The series is described as follows: Binding affinity to estrogen receptor.

The source of these data is ChEMBL document CHEMBL1156230, “Identification of phenylsulfone-substituted quinoxaline (WYE-672) as a tissue selective liver X-receptor (LXR) agonist” (J Med Chem, 2010).

Molecules are shown by their SMILES. Activity calls are given as the source filed them. The calls are words filed in the database; no cut-off is given here.

Consider `O=C(O)Cc1cccc(OCCCN(Cc2cccc(C(F)(F)F)c2Cl)CC(c2ccccc2)c2ccccc2)c1`, for which, in the series with Mus musculus [1], the outcome was Active.
As a reminder, the Cmax is the highest concentration seen after dosing. As a reminder, the AUC(0-inf) is total exposure, with the tail of the curve extrapolated. One may read the EC50 as the concentration needed to bring the measured effect to its halfway point. As usually defined, the IC50 is the concentration that inhibits the measured activity by half. For `Cc1nc2c(C(F)(F)F)cccc2nc1-c1ccc(-c2cccc(S(C)(=O)=O)c2)cc1`, the result in [2], in [7], in [9] and in [12] was inactive. Further, the Efficacy with HepG2 was found to be 7%. Besides, the peak level in series [3] (Cmax) was 229 ng/mL. Moreover, the Activity is listed as 20% in the series on Mus musculus [4] and 51% with Mus musculus [11]. Further, the area under the curve AUC(0-inf) in series [5] was determined as 2440 ng·h/mL. The results for the EC50 in series [6] and in [8] were 580 nM and over 1000 nM, respectively. The 50% inhibitory concentration (IC50) in [10] came to 53 nM.
